Test: solvent given as SMILES

C1=C(c2ccc(-c3cccs3)s2)CCCC1
emission maximum (in C1CCOC1): 423 nm | emission maximum (in CC#N): 415 nm | emission maximum (in CCCCCC): 411 nm | emission maximum (in CCO): 445 nm | emission maximum (in OCCOCCO): 446 nm | emission maximum (in c1ccncc1): 423 nm

CC(C)(C)c1ccc(C2=C(c3ccc(-n4c5ccc(C(C)(C)C)cc5c5cc(C(C)(C)C)ccc54)cc3)S(=O)(=O)c3c2sc(-c2ccc(-n4c5ccc(C(C)(C)C)cc5c5cc(C(C)(C)C)ccc54)cc2)c3-c2ccc(C(C)(C)C)cc2)cc1
emission maximum (in C1CCOC1): 555 nm

CC(C)CCCCN1CCc2c1ccc1c3c(ccc21)C(=O)CCC3
emission maximum (in C1CCCCC1): 433 nm | emission maximum (in CC#N): 489 nm | emission maximum (in CC(C)O): 512 nm | emission maximum (in CCC(C)=O): 481 nm | emission maximum (in CCO): 522 nm | emission maximum (in CCOC(C)=O): 467 nm | emission maximum (in CS(C)=O): 472 nm | emission maximum (in Cc1ccccc1): 452 nm | emission maximum (in ClCCl): 472 nm | emission maximum (in Clc1ccccc1): 462 nm

c1ccc(-n2c(-c3c(-n4c5ccccc5c5ccccc54)cccc3-n3c4ccccc4c4ccccc43)nc3ccccc32)cc1
emission maximum (in C1CCOC1): 418 nm

C1=CC2=CC=CC3C=c4c(cc5cccc6cccc4c65)C(=C1)C23 (centres undefined)
emission maximum (in ClCCl): 574 nm

COc1cc2cc(C#Cc3ccc(/C=C(\C#N)C(=O)O)cc3)c(=O)oc2cc1OC
emission maximum (in CC#N): 464 nm

COc1ccc(-c2cn3cc(C)c[n+]3[n-]2)cc1
emission maximum (in ClCCl): 421 nm

O=C1CC(=O)Nc2cc(C(=O)O)ccc2N1
emission maximum (in CS(C)=O): 407 nm

N#Cc1nc(N(Cc2ccc(F)cc2)Cc2ccc(F)cc2)c(C#N)nc1N(Cc1ccc(F)cc1)Cc1ccc(F)cc1
emission maximum (in ClC(Cl)Cl): 577 nm

Cc1ccc2oc(-c3cc4cc(C)ccc4oc3=O)cc2c1
emission maximum (in CC#N): 445 nm | emission maximum (in CCOC(C)=O): 436 nm | emission maximum (in CS(C)=O): 448 nm | emission maximum (in Cc1ccccc1): 436 nm | emission maximum (in O): 498 nm

CC1=NN(c2ccccc2)C(=O)/C1=C/c1cn(-c2ccccc2)nc1-c1ccccc1
emission maximum (in C1CCOC1): 429 nm | emission maximum (in C1COCCO1): 407 nm | emission maximum (in CCO): 427 nm | emission maximum (in CCOC(C)=O): 422 nm | emission maximum (in CN(C)C=O): 435 nm | emission maximum (in CO): 430 nm | emission maximum (in CS(C)=O): 437 nm | emission maximum (in Cc1ccccc1): 416 nm | emission maximum (in ClC(Cl)Cl): 432 nm | emission maximum (in ClCCl): 436 nm

CCCCn1c(-c2ccc(-c3nnc(-c4ccc(-c5nc6ccccc6n5CCCC)cc4)o3)cc2)nc2ccccc21
emission maximum (in ClCCl): 407 nm

CCOC(=O)CCCCCn1c2ccc(OC)cc2c(=O)c2cc3c(cc21)c(=O)c1cc(OC)ccc1n3CCCCCC(=O)OCC
emission maximum (in CCO): 592 nm

CC(C)c1ccc2ccc3cccc4ccc1c2c34
emission maximum (in CCCCCC): 376 nm | emission maximum (in CO): 376 nm | emission maximum (in ClCCl): 377 nm

CC[N+](CC)=c1ccc2c(-c3ccccc3C(=O)O)c3c(=O)oc4c5c6c(cc4c3oc-2c1)CCCN6CCC5
emission maximum (in CCO): 674 nm | emission maximum (in ClC(Cl)Cl): 664 nm | emission maximum (in O): 684 nm

COC(=O)C1=C(C(=O)OC)C2(c3cc(Cl)ccc3-c3c(Cl)cc(Cl)cc32)C2(/C=C/c3ccccc3)c3cc(OC)c(OC)cc3CCN12 (centres undefined)
emission maximum (in ClCCl): 487 nm

CCC1=C(C)C2=Cc3c4ccccc4c4n3[B-](C)(Oc3ccccc3-4)[N+]2=C1C (centres undefined)
emission maximum (in CC#N): 630 nm | emission maximum (in CCCCCC): 632 nm | emission maximum (in Cc1ccccc1): 636 nm | emission maximum (in ClCCl): 635 nm

F[B-]1(F)OC(c2ccccc2)=Cc2c3ccccc3cc[n+]21
emission maximum (in ClC(Cl)Cl): 463.2 nm

C(S/C=C/c1ccc(/C=C/SC=C2CCCCC2)cc1)=C1CCCCC1
emission maximum (in ClCCl): 421 nm

CC(C)(C)c1ccc2c(c1)c1cc(C(C)(C)C)cc3c1n2B1c2c-3cccc2-c2cc(C(C)(C)C)cc3c4cc(C(C)(C)C)ccc4n1c23
emission maximum (in C1CCOC1): 384 nm

N#Cc1cc(-c2ccc(F)cc2)cnc1O
emission maximum (in C1COCCO1): 422 nm | emission maximum (in CC1CCCCC1): 425 nm | emission maximum (in CC#N): 423 nm | emission maximum (in CC(C)O): 424 nm | emission maximum (in CCO): 425 nm | emission maximum (in CO): 425 nm | emission maximum (in CS(C)=O): 427 nm | emission maximum (in ClC(Cl)(Cl)Cl): 429 nm | emission maximum (in O): 425 nm

CCN(CC)c1ccc2cc(-c3ccc(S(C)(=O)=O)cc3)oc(=O)c2c1
emission maximum (in CC(C)=O): 487 nm | emission maximum (in CCCCCC): 419 nm | emission maximum (in CCCCO): 476 nm | emission maximum (in CCCO): 480 nm | emission maximum (in CCO): 485 nm | emission maximum (in CCOC(C)=O): 465 nm | emission maximum (in CN(C)C=O): 499 nm | emission maximum (in CO): 489 nm | emission maximum (in ClC(Cl)Cl): 456 nm

O=S1(=O)C2=C(c3ccc(-c4ccc(N(c5ccccc5)c5ccccc5)cc4)cc31)C1(C3=C(c4ccccc41)S(=O)(=O)c1cc(-c4ccc(N(c5ccccc5)c5ccccc5)cc4)ccc13)c1ccccc12
emission maximum (in C1CCOC1): 599 nm | emission maximum (in CC#N): 665 nm | emission maximum (in CCCCCC): 485 nm | emission maximum (in Cc1ccccc1): 543 nm | emission maximum (in ClCCl): 624 nm

COc1ccc(-c2cnc3cccc(-c4ccc(C(C)=O)cc4)n23)cc1
emission maximum (in ClCCl): 537 nm

COc1ccc(-c2nc(N)nc(C#N)c2C#N)cc1OC
emission maximum (in C1COCCO1): 428 nm | emission maximum (in CC#N): 456 nm | emission maximum (in CC(C)=O): 430 nm | emission maximum (in CCO): 436 nm | emission maximum (in CCOC(C)=O): 442 nm | emission maximum (in CO): 442 nm

C[C@]12SC(=O)C=C1c1nc(-c3ccc(Cl)cc3Cl)[nH]c1C1=CC(=O)S[C@@]12C
emission maximum (in CC#N): 500 nm

Cc1nn(-c2ccccc2)c(C2=NN(c3ccc(Br)cc3)[C@@H](c3ccccc3)[C@@H]2c2ccccc2)c1C#N
emission maximum (in C1CCCCC1): 468 nm | emission maximum (in C1CCOC1): 483 nm | emission maximum (in C1COCCO1): 481 nm | emission maximum (in CC#N): 491 nm | emission maximum (in CCCCCCC): 467 nm | emission maximum (in CCO): 493 nm | emission maximum (in CN(C)C=O): 492 nm | emission maximum (in CO): 496 nm | emission maximum (in O): 485 nm | emission maximum (in OCCO): 500 nm

CCN(CC)c1ccc2c(-c3ccccc3C(=O)O)c3c([o+]c2c1)/C(=C/c1ccc(N(C)C)s1)CCC3
emission maximum (in ClCCl): 766 nm

C=Cc1cccc(OC)c1
emission maximum (in C1CCCCC1): 327 nm | emission maximum (in CC#N): 330 nm

N#Cc1c(-n2c3ccccc3c3ccccc32)cc(N2c3ccccc3C(c3ccccc3)(c3ccccc3)c3ccccc32)cc1-n1c2ccccc2c2ccccc21
emission maximum (in Cc1ccccc1): 471 nm

CC/[NH+]=c1\cc2oc3cc(NCCOC(=O)C(NC(=O)OC(C)(C)C)C(C)C)c4ccccc4c3nc-2cc1C (centres undefined)
emission maximum (in CCO): 652 nm | emission maximum (in O): 652 nm

CN(C)c1ccc(C(=O)Nc2cccc(Cl)c2)cc1
emission maximum (in C1CCCCC1): 338 nm | emission maximum (in C1CCOC1): 455 nm | emission maximum (in CC#N): 496 nm | emission maximum (in CCOCC): 445 nm

COc1ccc(/N=N/c2c(O)c3ccccc3n(C)c2=O)c(S(=O)(=O)O)c1
emission maximum (in C1CCOC1): 527 nm | emission maximum (in CC(C)=O): 528 nm | emission maximum (in CCOC(C)=O): 525 nm | emission maximum (in CO): 532 nm | emission maximum (in CS(C)=O): 548 nm | emission maximum (in Cc1ccccc1): 519 nm | emission maximum (in ClCCl): 542 nm | emission maximum (in O): 583 nm

Nc1ccc2nc3c4ccccc4c(=[NH2+])cc-3oc2c1
emission maximum (in CCO): 619 nm

CCC1=C(C)C(=O)n2c1cc1c(C)c(CC(=O)O)c(C)n1c2=O
emission maximum (in CO): 535 nm | emission maximum (in CS(C)=O): 505 nm | emission maximum (in ClC(Cl)Cl): 485 nm | emission maximum (in c1ccccc1): 465 nm

CCCCCCN1C(=O)c2cccc3c(-c4ccc(-c5ccc6c7c(cccc57)C(=O)N(CCCCCC)C6=O)s4)ccc(c23)C1=O
emission maximum (in ClC(Cl)Cl): 495 nm

CCOC(=O)CCCCCn1c2ccc(C)cc2c(=O)c2cc3c(cc21)c(=O)c1cc(C)ccc1n3CCCCCC(=O)OCC
emission maximum (in CO): 565 nm

CCNc1ccc2c(c1)C(C)(C)C(=O)C=C2
emission maximum (in O): 541 nm

COc1ccc(-c2csc(-c3ccncc3)n2)cc1
emission maximum (in CC#N): 560 nm | emission maximum (in CCO): 457 nm | emission maximum (in CN(C)C=O): 451 nm | emission maximum (in CS(C)=O): 455 nm | emission maximum (in Cc1ccccc1): 415 nm | emission maximum (in ClCCl): 548 nm

CCC1=C(C)C2=Cc3cscc3B(O)N2C1=O
emission maximum (in CC#N): 412 nm | emission maximum (in CCCCCC): 396 nm | emission maximum (in CO): 418 nm | emission maximum (in CS(C)=O): 425 nm | emission maximum (in ClC(Cl)Cl): 414 nm

CCC1=C(C)C2=Cc3ccccc3B(O)N2C1=O
emission maximum (in CC#N): 411 nm | emission maximum (in CCCCCC): 405 nm | emission maximum (in CO): 411 nm | emission maximum (in CS(C)=O): 416 nm | emission maximum (in ClC(Cl)Cl): 418 nm

CC(=O)Nc1ccc2c3cccc4cccc(c5cccc1c52)c43
emission maximum (in C1COCCO1): 471 nm | emission maximum (in CC#N): 471 nm | emission maximum (in CCCCOCCCC): 471 nm | emission maximum (in CCOC(C)=O): 471 nm

COc1cc2cc(-c3ccc(C(=O)OCOC(C)=O)cc3C(=O)OCOC(C)=O)oc2cc1N1CCOCCOCCN(c2cc3oc(-c4ccc(C(=O)OCOC(C)=O)cc4C(=O)OCOC(C)=O)cc3cc2OC)CCOCCOCC1
emission maximum (in O): 546 nm

COc1ccccc1-n1nc(C#N)c(N2CCCC2)n1
emission maximum (in CC#N): 418 nm

c1ccc2c(-c3ccc(-n4c5ccccc5c5ccccc54)cc3)c3c(nc2c1)-c1cc2c(cc1CC3)-c1nc3ccccc3c(-c3ccc(-n4c5ccccc5c5ccccc54)cc3)c1CC2
emission maximum (in ClC(Cl)Cl): 385 nm

c1ccc(-c2ccc3c4ccc(-c5ccccc5)c5c(-c6ccccc6)ccc(c6ccc(-c7ccccc7)c2c36)c54)cc1
emission maximum (in ClCCl): 520 nm

O=C(c1ccc(C(=C(c2ccccc2)c2ccccc2)c2ccccc2)cc1)c1ccc(-n2c3ccccc3c3ccccc32)cc1
emission maximum (in C1CCOC1): 496 nm

O=Cc1ccc(Oc2ccc3c4c(cccc24)C(=O)N(CCO)C3=O)cc1
emission maximum (in ClC(Cl)Cl): 414 nm

CC1=CC(Br)=CN2C[n+]3cc(Br)cc(C)c3N=C12
emission maximum (in CO): 502 nm

CC1(C)C(/C=C/C2=C(Cl)C(=C/C=C3/N(Cc4ccccc4)c4ccccc4C3(C)C)/CCC2)=[N+](Cc2ccccc2)c2ccccc21
emission maximum (in CO): 813 nm

Reference: the Deep4Chem optical property database
